Source: patent US7053052B2, “Therapies involving mutated heat shock transcription factor” (priority 1997, dated 2006)

How the values were obtained:
HeLa-CAT cells [1] = experiment: Rates of protein and DNA synthesis in HSF1(+)-expressing cells (3H-leucine, 3H-thymidine incorporation); assay type: cell-based, human; conditions: day 2
Protocol: CAT assays were performed using the chromatographic assay of Gorman, C. M. et al., Mol. Cell. Biol., 2:1044–1051 (1982)). DNA replication was assessed by a standard ^3H-thymidine incorporation assay. In most experiments, including all western blot assays, standardization was based on protein content. All protein determinations were made using the Bradford method. In a few experiments involving sorted cells, standardization was based on cell numbers. All experiments were repeated at least twice, and, in most cases, each data point was derived from assays of 3–5 parallel samples.
Protein synthesis dropped to about 10% of the normal rate during heat shock but, after a 1 hour recovery period, returned to pre-shock level in HSF1(+)-expressing but not control cells. […] Fluorescence-activated cell sorting and analyses of DNA content were performed on a FACStar Plus machine (Becton-Dickinson, San Jose, Calif.) configured as described elsewhere (Parks, D. R. et al., In: The Handbook of Experimental Immunology, 4th Edition. Vol. 29. pp. 1–29, 1986). Excitation wave length was 488 nm, and detection lengths were 650 nm (long pass) for propidium iodide and 520 nm (narrow band) for fluorescence by GFP. Extracts from sorted cells were analyzed by western blot. mutHSF was detected in cells sorted as positive for GFP, but not in cells sorted as negative compare. […]

rodent cell lines = experiment: hsp overexpression in rodent cell lines; assay type: cell-based; conditions: several rodent cell lines
HepG2 cells = experiment: Mortality from exposure to cyclophosphamide (LDH release, mortality); conditions: cyclophosphamide 20 mM
HeLa-CAT cells [2] = experiment: Cell survival after heat shock, count of β-galactosidase-positive cells; assay type: cell-based, human; conditions: heat shock 48° C./10 minutes; p<0.05
Protocol: To also assess the effect of expression of HSF1(−) on stress-induced cell killing, cultures were transfected with a beta-galactosidase gene or co-transfected with the beta-galactosidase gene and the HSF1(−) construct.
Transfected cultures were subjected to a severe heat shock (48° C./10 minutes; about 75% cell survival) or left untreated, and β-galactosidase-positive cells were counted the following day. Untreated, singly and doubly transfected cultures contained similar number of β-galactosidase-expressing cells. In the heat-shocked cultures, the presence of HSF1(−) increased cell killing by about 60% (p<0.05). Thus, the increase in Hsp levels occurring as a consequence of a stressful event has a significant, immediate protective effect.

human HSF1d202–316 [HSF1(+)]
reduction of DNA replication (3H-thymidine incorporation) compared to control cells (HeLa-CAT cells [1]): 4–5 fold | pattern of hsp overexpression (rodent cell lines): hsp90 and, to a lesser extent, hsp25 were clearly overexpressed; the rate of hsp70 synthesis was only marginally enhanced | reduction of mortality by LDH leakage assay (HepG2 cells): 43% | reduction of cyclophosphamide-caused mortality (HepG2 cells; 24 hour): 55%

human HSF1d453–523 [HSF1(−)]
increase in cell killing (HeLa-CAT cells [2]): about 60%
